The subject of the data set is rat liver. To be noted: treated rats, liver samples; selection by visual inspection and ALT measurement. The method, then:
Forty-eight polypeptide spectra were prepared from rat liver samples under four toxicological conditions (G=4).
While it was desirable that samples from each group be completely separated from those of other groups, it was especially important that samples from Group 4 (high toxicity) were separated from the others.

For `S=C=Nc1cccc2ccccc12` [Alpha-naphthyl Isothiocyanate (ANIT), Alpha-naphthyl Isothiocyanate], the Toxicity result is “Mild”.

Turning to `ClC(Cl)(Cl)Cl` [Carbon Tetrachloride (CCl4), Carbon Tetrachloride], the Toxicity entry is “Mild”.
